Patent US8877908B2, “Stimulus-responsive apta chelamers” (The Administrators of the Tulane Educational Fund, priority 2008, dated 2014)
Read-outs that look alike come from different tables or passages of the source.

What was measured:
bovine trypsin = target: T1, bovine trypsin (Bos taurus, UniProt P00760); experiment: Fluorescence anisotropy titration of fluorescein-labelled ODNs with increasing trypsin; assay type: binding; conditions: for change of trypsin affinity on lowering salt to 5 mM KCl, 25 mM Hepes, pH 7.4: low salt versus high salt; for Kd: preformed quadruplex, 2 nM ODN
T1 construct: purchased Sigma Aldrich; host or cells: bovine pancreas
T1 sequence (P00760 24-246): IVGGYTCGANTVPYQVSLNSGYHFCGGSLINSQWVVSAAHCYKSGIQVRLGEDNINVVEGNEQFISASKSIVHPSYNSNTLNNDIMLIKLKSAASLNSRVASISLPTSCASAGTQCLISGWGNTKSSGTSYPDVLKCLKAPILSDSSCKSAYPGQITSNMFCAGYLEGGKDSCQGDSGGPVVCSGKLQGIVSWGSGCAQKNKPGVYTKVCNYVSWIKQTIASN
Experimental: The next step was to determine whether the intramolecular quadruplex conformation of AC 1 leads to enhanced affinity towards trypsin as a result of bidentate binding (FIG. 15, pathway A). […] AC 1 and ODNs 2 through 4 were first incubated in the presence of potassium cations to induce the quadruplex fold. The preformed quadruplexes were then incubated with increasing concentrations of trypsin at 25° C. (25 mM KCl, 200 mM NaCl, 25 mM Hepes, pH 7.4) for 30 min. Preliminary fluorescence anisotropy studies were conducted to ascertain that equilibrium was reached after 30 min and that there was no significant quenching of the fluorescein emission. The anisotropy associated with the fluorescein emission was followed at 525 nm (excitation at 495 nm). The resultant binding isotherms (FIG. 14) were fitted using non-linear regression to a 1:1 binding stoichiometry. […] In fact, the dissociation constant was determined to be 8.1×10^−7 M, a value that indicates a greater than 100 and 30 fold binding enhancement when compared to monodentate controls ODN 3 and ODN 2, respectively. […] This dissociation constant is attributed to non-specific interactions between bovine trypsin and ODN 4, since trypsin (pI=10.5) is positively charged at pH=7.4 and thus can potentially associate with the negatively charged DNA backbone. Support for such non-specific interactions comes from incubation of trypsin with ODN 4 where the concentration of salts were decreased to only 5 mM KCl, 25 mM Hepes, pH 7.4 (see, e.g., FIG. 23).
Immediately prior to each fluorescence polarization experiment, fresh stock solutions of trypsin were made in Hepes buffer (20 mM KCl, 200 mM NaCl, 25 mM Hepes, pH 7.4). Concentration of the trypsin in the stock solutions were determined using ultra-violet absorbance at 280 nm (ε=37669 M^−1cm^−1). Serial dilutions from the stock solution of trypsin were made into eppendorf tubes (spanning a range from 1×10^−9 to 1×10^−3M). To these trypsin-containing tubes were added aliquots of ODNs, such that the total concentration of ODNs in each eppendorf tube was 2 nM. After gently agitating, 150 uL from each eppendorf was transferred to respective borosilicate glass culture tubes and the tubes were allowed to equilibrate for 30 minutes at 25° C. (preliminary fluorescence anisotropy studies were conducted to ascertain that equilibrium was reached after 30 min and that there was no significant quenching of the fluorescein emission). Fluorescence polarization at 25° C. was determined on a Molecular Probes Beacon 2000 Fluorescence Polarization Instrument, using 495 and 525 nm narrow band pass filters for excitation and emission, respectively. Values of millipolarization (mP) from the Beacon 2000 were converted to millianisotropy (mA) using equation 1, where A is the anisotropy value, and P is the observed polarization.
1:1 (trypsin:ODN) binding mode: Anisotropy was plotted against trypsin (receptor protein) concentration and fitted to Equation 2 (a single-site model without receptor depletion), wherein Af is the anisotropy of the unbound ODN, Ab is the anisotropy of the bound ODN, Or is the total added ODN concentration (in M units), and Kd is the dissociation constant. Non-linear regression analysis using Origin 8.0 software was used for fitting the experimental data.
Cooperative binding mode: Binding equilibrium best described as cooperative binding was fitted to the Hill equation (Equation 3), where the fluorescence quantum yield of fluorescein is constant and the ODN substrate is limiting. R is the total protein concentration, R1/2 (or [trypsin]1/2) is the protein concentration required for half-maximal binding, and h is the Hill coefficient.

streptavidin = target: T2, streptavidin (Streptomyces avidinii, UniProt P22629); experiment: Streptavidin-immobilized microplate assay, hemin/H2O2 oxidation of ABTS, absorbance at 414 nm; conditions: 5 μM ODN with 5 μM hemin, 1 h incubation, washed, ABTS 2 mM
T2 construct: purchased Thermo Fisher Scientific (NUNC)
Experimental: As shown schematically in FIG. 28, streptavidin-immobilized, NUNC 96 well microplates were obtained from Thermo Fisher Scientific. Each well was pre-washed three times with 100 μL of PBS buffer (20 mM NaH2PO4, 30 mM Na2HPO4, 100 mM NaCl, pH 7.4). To each well, 100 μL of sample ODNs (5 μM, previously annealed from 95° C.) with hemin (5 μM) in Hepes buffer (50 mM HEPES, 20 mM KCl, 200 mM NaCl, 1% DMSO, 0.05% Triton X-100, pH 8.0) was incubated for one hour with gentle agitation. Sample ODN solutions were then removed by inversion, and each well washed three times with PBS buffer. Plate wells were then refilled with 98.5 μL of the Hepes buffer containing ABTS (2,2′-azino-bis(3-ethylbenzthiazoline-6-sulphonic acid)). Hydrogen peroxide (2 mM) was then introduced to each well bringing the total assay volume to 100 μL and total ABTS concentration to 2 mM. Visible light absorbance at 414 nm was then immediately followed on a Molecular Devices SpectraMax 190 microplate reader (FIG. 27).

thrombin = thrombin (Homo sapiens, UniProt P00734); conditions: literature; cited from earlier work
[1] = 5 mM KCl, 25 mM Hepes, pH 7.4, read-out: dissociation constant (Kd) for trypsin, low-salt conditions
[2] = high salt (20 or 25 mM KCl, 200 mM NaCl, 25 mM Hepes, pH 7.4), 25° C., 1:1 fit, read-out: dissociation constant (Kd) for trypsin

T2 sequence (P22629 25-183): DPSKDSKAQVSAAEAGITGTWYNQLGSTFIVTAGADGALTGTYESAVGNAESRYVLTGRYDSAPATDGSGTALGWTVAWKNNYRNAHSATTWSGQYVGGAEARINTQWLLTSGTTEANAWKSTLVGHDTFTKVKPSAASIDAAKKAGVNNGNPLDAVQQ

With “AC 1 (TTGGTTGGTGTGGTTGGT; 5' dT fluorescein conjugate, ba and ipt arms attached, further chemistry not given here)” the “potency of quadruplex form in binding trypsin relative to double helical structure (duplex 1:5)” value (bovine trypsin; Kd of quadruplex versus [trypsin]1/2 of duplex) was “about 20 times”, the “change of trypsin affinity on lowering salt to 5 mM KCl, 25 mM Hepes, pH 7.4” value (bovine trypsin) was “only slight change in affinity” and the Kd (bovine trypsin; [1]) was 2.8 µM. The Kd (bovine trypsin; [2]) was 0.81 µM, the “binding enhancement compared to monodentate control ODN 2” value (bovine trypsin; ratio of Kd values, high salt) was greater than 30 fold and the “binding enhancement compared to monodentate control ODN 3” value (bovine trypsin; ratio of Kd values, high salt) was “greater than 100 fold”.

In the case of “AC-X1: hemin binding aptamer core (SEQ ID NO:9) with biotin as small molecule handle for streptavidin (TGGGTAGGGCGGGTTGGGT; DNA, backbone and methylation of C not given here; biotin tethered via linker)”, the “absorbance change at 414 nm versus control HBA well” value (streptavidin) is reported as “greater absorbance change”.

With “ODN 2 (TTGGTTGGTGTGGTTGGT; 5' ba arm attached, fluorescein-dT conjugate, further chemistry not given here)” the Kd (bovine trypsin; [2]) was 29 µM.

“ODN 3 (TTGGTTGGTGTGGTTGGT; 3' ipt arm attached, fluorescein-dT conjugate, further chemistry not given here)” showed a Kd (bovine trypsin; [2]) of 90 µM.

In the case of “ODN 4: 5′-TTGGTTGGTGTGGTTGGT-3′, no arms, 5′ terminal dT bearing fluorescein; negative control (listed as DNA, chemistry not fully specified)”, the “change of trypsin affinity on lowering salt to 5 mM KCl, 25 mM Hepes, pH 7.4” value (bovine trypsin) is reported as “significant decrease in the Kd”, the Kd (bovine trypsin; [1]) is reported as 31 µM and the Kd (bovine trypsin; [2]) is reported as 2900 µM.

In the case of “thrombin binding aptamer: core sequence 5′-GGTTGGTGTGGTTGG-3′ (SEQ ID NO:6)”, the “dissociation constant (Kd) of complex with thrombin” value (thrombin) is listed as “micromolar range”.
